Experimental data reported in paper PMC6826779, “Bis-allylic Deuterated DHA Alleviates Oxidative Stress in Retinal Epithelial Cells” (Antioxidants, 2019).

Assay: Radical oxidation of DHAs with AAPH, LC-MS/MS quantification of 4-F4t-NeuroP
Format: physicochemical
Details: AAPH 1 mM, phosphate buffer/methanol, 37 °C, 14 h; compared to natural DHA
Experimental: A solution of DHA in methanol (1 mg/mL, 0.5 mL) was added to 4.5 mL of phosphate-buffered saline solution (pH = 7.3) containing 1 mM of AAPH. The mixture was heated at 37 °C for 14 h, and then allowed to reach room temperature The mixture was spiked with 4 ng of internal standard (IS: C21-15-F2t-IsoP) and then purified using solid phase extraction.
For solid-phase extraction (SPE), Oasis MAX mixed polymer phase anion exchanger cartridges were used. Aliquots of 2 mL of sample were loaded on the cartridges previously conditioned with 2 mL of methanol and equilibrated with 2 mL of 0.02 M of formic acid (pH 4.5). […] Recoveries were determined to range between 83 and 100% (see Supplementary Materials). […]
Mass spectrometry analysis was performed on an AB SCIEX QTRAP 5500 (Sciex). […] Quantification was accomplished using external calibration lines constructed with the internal standard (IS: C21-15-F2t-IsoP). The data are presented as means ± SD determined from 3 independent experiments, each performed in triplicate assay.
Standards solutions of IS (C21-15-F2t-IsoP) and NeuroP standardt (4(RS)-F4t-NeuroP) used to determine the different characteristic transitions and the elution time for each compound were prepared in methanol at 1 µg/mL from 1 mg/mL stock solution in methanol. […] Finally, calibration curves were calculated by the area ratio of the NeuroP and the internal standard.

Row | SMILES | 4-F4t-NeuroP formation after radical oxidation
1 | [2H]C([2H])(/C=C\C/C=C\C/C=C\C/C=C\C/C=C\CC)/C=C\CCC(=O)O [D2-DHA, (6,6-D2)-DHA] | decrease of 4-F4t-NeuroP formation
2 | [2H]C([2H])(C=CCC=CCC=CCC=CCC)C=CC([2H])([2H])C=CCCC(=O)O [D4-DHA, (6,6,9,9-D4)-DHA] | decrease of 4-F4t-NeuroP formation
